Article PMC11345828 (Journal of Medicinal Chemistry, 2024)
Where “and” joins values, the source holds several entries; their conditions need not be identical. Identical values can stand only once. Marks after values point to notes of the source that are not given here.

What was measured:
NCI-H929 cell line = test: cells; details: Homo sapiens, NCI-H929, read-out: NCI-H929 GI50
Experimental: (§1) NCI-H1048 were cultured in custom medium prepared by PanBioTech containing DMEM/F12 + 5% fetal calf serum, 0.005 mg/mL insulin, 0.01 mg/mL transferrin, 30 nM sodium selenite, 10 nM hydrocortisone, 10 nM β-estradiol and […] 2 mM L-glutamine.
(§2) Suspension cells were plated immediately before compound addition. Adherent cell lines were incubated overnight at 37 °C in a tissue culture incubator prior to compound addition. Compounds were added in triplicates using an HP D300e Digital Dispenser (Hewlett-Packard) or manually at the concentrations indicated and total volumes were normalized using dimethyl sulfoxide (DMSO) backfill, with final DMSO concentration of 0.5%. Control wells were treated with DMSO only.

K562 cell line = test: cells; details: Homo sapiens, K562, read-out: K562 GI50
Experimental: as §1, §2

Mouse IV PK = details: for AUC/Dose / CL / improvement in the mouse IV clearance from (M)-18: mouse IV; for AUC/Dose: dose normalized; for clearance: mouse, plasma, iv; for improvement in the mouse IV clearance from (M)-18: relative to (M)-18
Experimental: (§3) For PK analysis, mice and dogs were administered intravenously with compound formulated either in 10% ethanol and 10% Cremophor EL for mice or in 50% ethanol and 50% PEG500 for dogs. Plasma samples were obtained at predefined time points and compound concentrations in plasma were measured by quantitative HPLC-MS/MS using an internal standard. Calibration and quality control samples were prepared using blank plasma from untreated animals. Samples were precipitated with acetonitrile and injected into a HPLC system (Agilent 1200). […] The HPLC was interfaced by ESI operated in positive ionization mode to a triple quadrupole mass spectrometer (6500+ Triple Quad System, SCIEX) operated in multiple reaction monitoring mode. Chromatograms were analyzed with Analyst (SCIEX) and pharmacokinetic parameters were calculated by noncompartmental analysis using proprietary software.

Experimental for Dog IV PK: as §3

GI50 (NCI-H929 cell line)	GI50 (K562 cell line)	clearance (Mouse IV PK; 25 mg/kg)	CL (Mouse IV PK; dosed at 25 mg/kg)	AUC/Dose (Mouse IV PK; dosed at 20 mg/kg)	clearance (Mouse IV PK; 20 mg/kg)	SMILES	also measured
187 ± 78 nM	> 12500 nM					Cc1cc(OCCCc2c3n(c4c(-c5c(C)nn(C)c5C)c(Cl)ccc24)[C@H](C)CN(c2cccc4cc(C(=O)O)n(C)c24)C3=O)cc(C)c1Cl [Compound 10, (R)-7-(7-Chloro-10-(3-(4-chloro-3,5-dimethylphenoxy)propyl)-4-methyl-1-oxo-6-(1,3,5-trimethyl-1H-pyrazol-4-yl)-3,4-dihydropyrazino[1,2-a]indol-2(1H)-yl)-1-methyl-1H-indole-2-carboxylic Acid]	
		70 mL/min/kg				COc1cc(N2C[C@@H](C)n3c(c(CCCOc4cc(C)c(Cl)c(C)c4)c4ccc(Cl)c(-c5c(C)nn(C)c5C)c43)C2=O)c2c(cc(C(=O)O)n2C)c1OC [Compound 18, (M,R)-7-(7-Chloro-10-(3-(4-chloro-3,5-dimethylphenoxy)propyl)-4-methyl-1-oxo-6-(1,3,5-trimethyl-1H-pyrazol-4-yl)-3,4-dihydropyrazino[1,2-a]indol-2(1H)-yl)-4,5-dimethoxy-1-methyl-1H-indole-2-carboxylic Acid]	AUC/Dose (Mouse IV PK; dosed at 25 mg/kg): 252 nM*h/mpk
32 ± 14 nM	7000 nM	43 mL/min/kg	43 mL/min/kg			COc1cc(N2C[C@@H](C)n3c(c(CCCOc4cc(C)c(Cl)c(C)c4)c4ccc(Cl)c(-c5c(C)ncnc5C)c43)C2=O)c2c(cc(C(=O)O)n2C)c1OC [Compound 19, (R)-7-(7-Chloro-10-(3-(4-chloro-3,5-dimethylphenoxy)propyl)-6-(4,6-dimethylpyrimidin-5-yl)-4-methyl-1-oxo-3,4-dihydropyrazino[1,2-a]indol-2(1H)-yl)-4,5-dimethoxy-1-methyl-1H-indole-2-carboxylic Acid]	AUC/Dose (Mouse IV PK; dosed at 25 mg/kg, 25 mg/kg): 499 nM*h/mpk and 499^c nM*h/mpk; improvement in the mouse IV clearance from (M)-18 (Mouse IV PK): 2 fold
33 ± 14 nM	6800 ± 3300 nM	45 mL/min/kg	45 mL/min/kg			COc1cc(N2C[C@@H](C)n3c(c(CCCOc4cc(C)c(Cl)c(C)c4)c4ccc(Cl)c(-c5c(C)nc(C)nc5C)c43)C2=O)c2c(cc(C(=O)O)n2C)c1OC [Compound 20, (R)-7-(7-Chloro-10-(3-(4-chloro-3,5-dimethylphenoxy)propyl)-4-methyl-1-oxo-6-(2,4,6-trimethylpyrimidin-5-yl)-3,4-dihydropyrazino[1,2-a]indol-2(1H)-yl)-4,5-dimethoxy-1-methyl-1H-indole-2-carboxylic Acid]	AUC/Dose (Mouse IV PK; dosed at 25 mg/kg, 25 mg/kg): 385 nM*h/mpk and 385^c nM*h/mpk; improvement in the mouse IV clearance from (M)-18 (Mouse IV PK): 2 fold
30 ± 13 nM	> 12000 nM	58 mL/min/kg	58 mL/min/kg			COCCOc1cc(N2C[C@@H](C)n3c(c(CCCOc4cc(C)c(Cl)c(C)c4)c4ccc(Cl)c(-c5c(C)ncnc5C)c43)C2=O)c2c(cc(C(=O)O)n2C)c1OC [Compound 21, (R)-7-(7-Chloro-10-(3-(4-chloro-3,5-dimethylphenoxy)propyl)-6-(4,6-dimethylpyrimidin-5-yl)-4-methyl-1-oxo-3,4-dihydropyrazino[1,2-a]indol-2(1H)-yl)-4-methoxy-5-(2-methoxyethoxy)-1-methyl-1H-indole-2-carboxylic Acid]	AUC/Dose (Mouse IV PK; dosed at 25 mg/kg): 290^c nM*h/mpk
		7 mL/min/kg		2830^d nM*h/mpk	7 mL/min/kg	COc1c(OCC2CCOCC2)cc(N2C[C@@H](C)n3c(c(CCCOc4cc(C)c(Cl)c(C)c4)c4ccc(Cl)c(-c5c(C)ncnc5C)c43)C2=O)c2c1cc(C(=O)O)n2C [Compound 22, (R)-7-(7-Chloro-10-(3-(4-chloro-3,5-dimethylphenoxy)propyl)-6-(4,6-dimethylpyrimidin-5-yl)-4-methyl-1-oxo-3,4-dihydropyrazino[1,2-a]indol-2(1H)-yl)-4-methoxy-1-methyl-5-((tetrahydro-2H-pyran-4-yl)methoxy)-1H-indole-2-carboxylic Acid]	
		15 mL/min/kg	15 mL/min/kg			COc1c(OC[C@H]2CCCO2)cc(N2C[C@@H](C)n3c(c(CCCOc4cc(C)c(Cl)c(C)c4)c4ccc(Cl)c(-c5c(C)ncnc5C)c43)C2=O)c2c1cc(C(=O)O)n2C [Compound 24, 7-((R)-7-Chloro-10-(3-(4-chloro-3,5-dimethylphenoxy)propyl)-6-(4,6-dimethylpyrimidin-5-yl)-4-methyl-1-oxo-3,4-dihydropyrazino[1,2-a]indol-2(1H)-yl)-4-methoxy-1-methyl-5-(((R)-tetrahydrofuran-2-yl)methoxy)-1H-indole-2-carboxylic Acid]	AUC/Dose (Mouse IV PK; dosed at 25 mg/kg): 1476^c nM*h/mpk
22 ± 10 nM	> 12000 nM	51 mL/min/kg	51 mL/min/kg			COCCOc1cc(N2C[C@@H](C)n3c(c(CCCOc4cc(C)c(Cl)c(C)c4)c4ccc(Cl)c(-c5c(C)nc(C)nc5C)c43)C2=O)c2c(cc(C(=O)O)n2C)c1OC [Compound 25, (R)-7-(7-Chloro-10-(3-(4-chloro-3,5-dimethylphenoxy)propyl)-4-methyl-1-oxo-6-(2,4,6-trimethylpyrimidin-5-yl)-3,4-dihydropyrazino[1,2-a]indol-2(1H)-yl)-4-methoxy-5-(2-methoxyethoxy)-1-methyl-1H-indole-2-carboxylic Acid]	AUC/Dose (Mouse IV PK; dosed at 25 mg/kg): 334^c nM*h/mpk; AUC/Dose (Dog IV PK; dosed at 0.25 mg/kg): 1324 nM*h/mpk; CL (Dog IV PK; dosed at 0.25 mg/kg): 16 mL/min/kg; CL (% hep blood flow) (Dog IV PK; dosed at 0.25 mg/kg): 50 % hep blood flow
		8.9 mL/min/kg		2190^d nM*h/mpk	8.9 mL/min/kg	COc1c(OC[C@@H]2CCCO2)cc(N2C[C@@H](C)n3c(c(CCCOc4cc(C)c(Cl)c(C)c4)c4ccc(Cl)c(-c5c(C)nc(C)nc5C)c43)C2=O)c2c1cc(C(=O)O)n2C [Compound 27, 7-((R)-7-Chloro-10-(3-(4-chloro-3,5-dimethylphenoxy)propyl)-6-(2,4,6-trimethylpyrimidin-5-yl)-4-methyl-1-oxo-3,4-dihydropyrazino[1,2-a]indol-2(1H)-yl)-4-methoxy-1-methyl-5-(((S)-tetrahydrofuran-2-yl)methoxy)-1H-indole-2-carboxylic Acid]	AUC/Dose (Dog IV PK; dosed at 0.9 mg/kg): 2100 nM*h/mpk; CL (Dog IV PK; dosed at 0.9 mg/kg): 8.9 mL/min/kg; CL (% hep blood flow) (Dog IV PK; dosed at 0.9 mg/kg): 29 % hep blood flow
		8.4 mL/min/kg		2510^d nM*h/mpk	8.4 mL/min/kg	COc1c(OC[C@H]2CCCO2)cc(N2C[C@@H](C)n3c(c(CCCOc4cc(C)c(Cl)c(C)c4)c4ccc(Cl)c(-c5c(C)nc(C)nc5C)c43)C2=O)c2c1cc(C(=O)O)n2C [Compound 28, 7-((R)-7-Chloro-10-(3-(4-chloro-3,5-dimethylphenoxy)propyl)-6-(2,4,6-trimethylpyrimidin-5-yl)-4-methyl-1-oxo-3,4-dihydropyrazino[1,2-a]indol-2(1H)-yl)-4-methoxy-1-methyl-5-(((R)-tetrahydrofuran-2-yl)methoxy)-1H-indole-2-carboxylic Acid]	
		19 mL/min/kg				COc1c(O[C@H]2CCOC2)cc(N2C[C@@H](C)n3c(c(CCCOc4cc(C)c(Cl)c(C)c4)c4ccc(Cl)c(-c5c(C)nc(C)nc5C)c43)C2=O)c2c1cc(C(=O)O)n2C [Compound 29, 7-((R)-7-Chloro-10-(3-(4-chloro-3,5-dimethylphenoxy)propyl)-4-methyl-1-oxo-6-(2,4,6-trimethylpyrimidin-5-yl)-3,4-dihydropyrazino[1,2-a]indol-2(1H)-yl)-4-methoxy-1-methyl-5-(((S)-tetrahydrofuran-3-yl)oxy)-1H-indole-2-carboxylic Acid]	AUC/Dose (Mouse IV PK; dosed at 5 mg/kg): 1858^e nM*h/mpk; clearance (Mouse IV PK; 5 mg/kg): 19 mL/min/kg; AUC/Dose (Dog IV PK; dosed at 0.9 mg/kg): 1808 nM*h/mpk; CL (Dog IV PK; dosed at 0.9 mg/kg): 12 mL/min/kg; CL (% hep blood flow) (Dog IV PK; dosed at 0.9 mg/kg): 38 % hep blood flow
		13 mL/min/kg		1425^d nM*h/mpk	13 mL/min/kg	COc1c(O[C@@H]2CCOC2)cc(N2C[C@@H](C)n3c(c(CCCOc4cc(C)c(Cl)c(C)c4)c4ccc(Cl)c(-c5c(C)nc(C)nc5C)c43)C2=O)c2c1cc(C(=O)O)n2C [Compound 30, 7-((R)-7-Chloro-10-(3-(4-chloro-3,5-dimethylphenoxy)propyl)-4-methyl-1-oxo-6-(2,4,6-trimethylpyrimidin-5-yl)-3,4-dihydropyrazino[1,2-a]indol-2(1H)-yl)-4-methoxy-1-methyl-5-(((R)-tetrahydrofuran-3-yl)oxy)-1H-indole-2-carboxylic Acid]	
		8.7 mL/min/kg		2465^d nM*h/mpk	8.7 mL/min/kg	CCOc1c(O[C@H]2CCOC2)cc(N2C[C@@H](C)n3c(c(CCCOc4cc(C)c(Cl)c(C)c4)c4ccc(Cl)c(-c5c(C)nc(C)nc5C)c43)C2=O)c2c1cc(C(=O)O)n2C [Compound 31, 7-((R)-7-Chloro-10-(3-(4-chloro-3,5-dimethylphenoxy)propyl)-4-methyl-1-oxo-6-(2,4,6-trimethylpyrimidin-5-yl)-3,4-dihydropyrazino[1,2-a]indol-2(1H)-yl)-4-ethoxy-1-methyl-5-(((S)-tetrahydrofuran-3-yl)oxy)-1H-indole-2-carboxylic Acid]	
		3.7 mL/min/kg		4930^d nM*h/mpk	3.7 mL/min/kg	CCOc1c(OCC2CCOCC2)cc(N2C[C@@H](C)n3c(c(CCCOc4cc(C)c(Cl)c(C)c4)c4ccc(Cl)c(-c5c(C)nc(C)nc5C)c43)C2=O)c2c1cc(C(=O)O)n2C [Compound 32, (R)-7-(7-Chloro-10-(3-(4-chloro-3,5-dimethylphenoxy)propyl)-4-methyl-1-oxo-6-(2,4,6-trimethylpyrimidin-5-yl)-3,4-dihydropyrazino[1,2-a]indol-2(1H)-yl)-4-ethoxy-1-methyl-5-((tetrahydro-2H-pyran-4-yl)methoxy)-1H-indole-2-carboxylic Acid]	
